These results are taken from PubChem BioAssay (NCI).

Holding throughout (assay): DTP human tumour cell line panel, 48 h
Test [1] concerns MDA-MB-435.
In test [2] the test system is TK-10 renal.
Test [3] has as its system OVCAR-3 ovarian.
The subject of test [4] is CCRF-CEM leukemia.
Test [5] deals with SR leukemia.
For test [6], the system named is HCC-2998 colon.
The subject of test [7] is COLO 205 colon.
In test [8] the test system is SN12C renal.
For test [9], the system named is MALME-3M melanoma.
In test [10] the test system is LOX IMVI melanoma.
Test [11] relates to HCT-116 colon.
The test system of test [12] is MOLT-4 leukemia.
For test [13], the system named is U251 CNS.
For test [14], the system named is PC-3 prostate.
Test [15] has as its system HL-60(TB) leukemia.
The subject of test [16] is SK-OV-3 ovarian.
For test [17], the system named is A498 renal.
Test [18] relates to NCI-H460 lung.
For test [19], the system named is HOP-92 NSCLC.

Where “and” joins values, the source holds several entries; their conditions need not be identical. Equal values may be shown once.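 Following 48 hours of exposure in 96-well plates, responses at five concentrations were used to interpolate endpoints linearly. TGI: concentration producing complete growth inhibition.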

Broadly, the TGI is the concentration at which net growth stops. High values mean lower sensitivity of the cells, low ones greater sensitivity of the cells.

Consider `COc1cc2cc(C(=O)N3CC(CCl)c4ccc(O)cc43)[nH]c2c(OC)c1OC` (stereo not drawn), for which the TGI in test [1] is 0.0158 µM; in test [2] it was 22.4 µM; in test [3], 0.015 µM; in test [4], more than 100 µM; in [5], more than 100 µM; in [6], 0.00936 µM. Also, the concentration for total growth inhibition (TGI) is 0.0451 µM in test [7]; 0.148 µM and 0.104 µM in [8]; 0.0178 µM in [9]; 0.136 µM in test [10].
`CNC(=O)N1CN(c2ccccc2)C2(CCN(CCCC(=O)c3ccc(F)cc3)CC2)C1=O`: the TGI in test [2] worked out at 49.5 µM; in [3], 41.6 µM; in [4], 70.8 µM; in test [11] it was 24.6 µM; in test [5], 69.7 µM; in [12], 33.6 µM. Moreover, the TGI in test [6] is 22.2 µM; in test [13] it was 60.4 µM; in test [7], 22.3 µM; in test [8], 75.4 µM; in test [14], more than 100 µM; in test [15], 37.8 µM. The results for the concentration for total growth inhibition (TGI) in test [16], in test [9] and in test [10] were 79.9 µM, 35.3 µM and 37.1 µM, respectively.
As for `CCOC(=O)C1=C(O)C(=O)c2ccsc2C1=O`, the TGI in test [2], in test [3], in test [17], in test [4], in test [11] and in test [5] was more than 100 µM each time. Besides, the TGI in [18], in test [12], in test [19], in test [6], in test [13] and in test [7] was more than 100 µM in each case. Besides, the TGI in [8], in [15], in [16], in test [9] and in test [10] was more than 100 µM each time.
On to `COC(=O)[C@@H]1CN(C(=O)CCc2ccccc2)C(=O)N1C(=O)OCc1ccccc1`, for which the TGI in test [1], in [2], in test [3], in test [17], in test [4] and in [11] was more than 100 µM throughout. Also, the TGI in test [5], in [18], in [12], in [19], in [6] and in test [13] was more than 100 µM each time. Moreover, the concentration for total growth inhibition (TGI) in test [7], in test [8], in test [15], in test [16], in test [9] and in test [10] was more than 100 µM throughout.
Consider `COc1ccc(NC(=O)C/C(C)=N\N=C(N)N)c([N+](=O)[O-])c1`, for which the TGI is more than 100 µM in test [2]; more than 100 µM in test [3]; more than 100 µM in [17]; more than 100 µM in test [4]; more than 100 µM in test [11]; 48.8 µM in [5]. In addition, the TGI in test [18], in test [12], in test [19], in test [6], in test [13] and in [7] was more than 100 µM throughout. In addition, the TGI in test [8], in test [15], in [16], in [9] and in [10] was more than 100 µM throughout.
In the case of `CN(C)c1ccc(C=C2C(=O)OC(C)(C)OC2=O)cc1Br`, the TGI in test [2], in test [3], in test [4], in [11], in test [5] and in test [18] was more than 100 µM each time. Also, the TGI in [12], in test [19], in test [6], in test [13], in test [7] and in test [8] was more than 100 µM each time. The TGI in [15], in test [16], in [9] and in test [10] was more than 100 µM in each case.
In the case of `Cn1c(/C=C(\O)c2ccc(Cl)cc2)nc2ccccc21`, the TGI in test [3], in [4], in test [11], in test [5], in test [18] and in test [12] was more than 100 µM in each case. For the same compound, the TGI in test [6] is more than 100 µM; in test [13] it was more than 100 µM; in [7], more than 100 µM; in test [8], more than 100 µM; in [15] it was 77.1 µM; in test [9], more than 100 µM. Further, the TGI in [10] was more than 100 µM.
Regarding `CCOC(=O)c1nc2ccc([N+](=O)[O-])cc2c2c1CCO2`, the TGI in test [2], in [3], in test [17], in [4], in test [11] and in test [18] was more than 100 µM in each case. Besides, the TGI in [12], in [6], in test [13], in test [7], in test [8] and in test [15] was more than 100 µM each time. Moreover, the TGI in test [16], in test [9] and in [10] was more than 100 µM throughout.
With `COc1ccc(NS(=O)CCCc2ccccc2)cc1` (stereo not drawn), the TGI in [1], in test [2], in test [3], in test [4], in test [11] and in test [5] was more than 100 µM in each case. Also, the total growth inhibition concentration (TGI) in test [18], in test [12], in [13], in test [7], in test [8] and in test [15] was more than 100 µM each time. Also, the TGI in test [9] and in test [10] was more than 100 µM throughout.
`CN(CCO)c1nc2c(c(=O)[nH]1)CCC2`: the TGI in [2], in test [3], in test [4], in [11], in [5] and in [18] was more than 100 µM each time. In addition, the TGI in [12], in test [19], in test [6], in test [13], in test [7] and in [8] was more than 100 µM each time. For the same compound, the total growth inhibition concentration (TGI) in test [15], in [16], in [9] and in test [10] was more than 100 µM in each case.
For the compound `CCO[C@]12C[C@H](OC)[C@@]3(O)CC(C1[C@H]3OCc1ccccc1)C13C4C2[C@H](OC)C1[C@](COC)(CN4CC)[C@H](O)C[C@@H]3OC` (stereo partly drawn), the TGI in [2], in test [4], in test [11], in [5], in test [18] and in test [12] was more than 100 µM each time. Besides, the TGI in test [6], in test [13], in test [7], in test [8], in test [15] and in test [16] was more than 100 µM each time. This compound also yielded a concentration for total growth inhibition (TGI) in test [10] of more than 100 µM.
Turning to `CC(=O)C1=CSC2[C@H](NC(=O)Cc3ccccc3)C(=O)N2C1C(=O)OC(c1ccccc1)c1ccccc1` (stereo partly drawn), the concentration for total growth inhibition (TGI) in test [2] is more than 100 µM; in test [3] it was more than 100 µM; in test [17], more than 100 µM; in [4], 68.2 µM; in [11] it was more than 100 µM; in test [5], more than 100 µM. The TGI in test [12], in test [19], in test [6], in test [7], in test [8] and in [15] was more than 100 µM in each case. Further, the TGI in [16] and in test [9] was more than 100 µM in each case.
As to `CCOC1(COP(=O)(OCc2ccccc2)OCc2ccccc2)COC(COP(=O)(OCc2ccccc2)OCc2ccccc2)(OCC)CO1` (stereo not drawn), the TGI in test [2], in test [3], in test [4], in test [11], in test [5] and in test [18] was more than 100 µM each time. In addition, the TGI in test [12], in [19], in [6], in [13], in [7] and in test [8] was more than 100 µM in each case. Also, the TGI in test [15], in test [16], in [9] and in test [10] was more than 100 µM each time.
Regarding `CC1=C(N2CC2)C(=O)c2nc3n(c2C1=O)CCC3OC(=O)CCl` (stereo not drawn), the total growth inhibition concentration (TGI) in [1] was 0.112 µM; in [2] it was 0.639 µM; in test [3], 0.52 µM; in test [17], 0.13 µM; in test [4], 3.65 µM; in test [11], 0.383 µM. Further, the TGI in test [5] came to 13.6 µM; in test [18] it was 0.123 µM; in [12] it was 5.89 µM; in test [19], 8.04 µM; in test [6] it was 0.136 µM; in test [13], 0.237 µM. In addition, the TGI in test [7] is 0.444 µM; in [8] it was 0.267 µM; in test [15], 3.18 µM; in [16], 0.29 µM; in [9] it was 0.103 µM; in [10] it was 0.117 µM.
As to `O=c1cc(-c2ccccc2)[nH]c2cc(O)ccc12`, the TGI in test [2] was more than 100 µM; in test [17], more than 100 µM; in [4], 42.6 µM; in [11] it was 31.3 µM; in test [5], 62.9 µM; in [18] it was 33.3 µM. For the same compound, the TGI in [12] came to 54.7 µM; in test [19], 70.3 µM; in test [6] it was 74.7 µM; in test [13], 90.7 µM; in [7] it was 32.3 µM; in test [8], 89.6 µM. For the same compound, the concentration for total growth inhibition (TGI) in test [15] was 40.7 µM; in [16], 90.7 µM; in test [9], more than 100 µM; in test [10], 34.6 µM.
Turning to `CN(C)CCCNC(=O)N/N=C/c1cccc([N+](=O)[O-])c1`, the total growth inhibition concentration (TGI) in [2], in test [3], in test [4], in test [11], in test [18] and in [12] was more than 100 µM throughout. Besides, the total growth inhibition concentration (TGI) in test [13], in test [8], in test [16], in test [9] and in test [10] was more than 100 µM each time.
With `C=C1CC2OC2(C(=O)O[C@H]2CCC3[C@@H]4CCC5=CC(=O)CC[C@]5(C)C4CC[C@@]32C)C1=O` (stereo partly drawn), the TGI was found to be 48.7 µM in test [1]; 15.1 µM in test [2]; 21.8 µM in test [3]; 30.6 µM in [17]; 12.7 µM in test [4]; 13.8 µM in [11]. The concentration for total growth inhibition (TGI) in [5] is 7.65 µM; in test [18], 28.9 µM; in test [12] it was 5.96 µM; in test [19] it was 23.5 µM; in test [6], 74.5 µM; in [13], 21.2 µM. Further, the TGI in [7] amounted to 15.5 µM; in test [8] it was 13.9 µM; in test [15] it was 3.93 µM; in [16], 38.8 µM; in test [9] it was 16.5 µM; in test [10] it was 21.1 µM.
On to `CC12NN=NC1C(=O)NC2=O` (stereo not drawn), for which the concentration for total growth inhibition (TGI) in test [2], in test [3], in [17], in test [4], in [11] and in [5] was more than 100 µM in each case. Also, the TGI in test [18], in test [12], in test [19], in [6], in test [13] and in [7] was more than 100 µM throughout. In addition, the TGI in test [8], in test [15], in [16] and in test [10] was more than 100 µM throughout.
